Key:
Assay type in all cases: in vivo
[1] = tested on: Heliothis virescens; assay: Action against Heliothis virescens caterpillars (sprayed soybean plants); details: 144 h, 400 ppm spray on young soybean plants, 10 caterpillars in the first stage, evaluation 6 days later, read-out: percentage reduction in population and percentage reduction in feeding damage (% activity)
Experimental: (§1) Young soybean plants are sprayed with an aqueous emulsion spray mixture comprising 400 ppm of test compound. After the spray-coating has dried, the soybean plants are populated with 10 caterpillars of Heliothis virescens in the first stage and placed in a plastics container. Evaluation is made 6 days later. The percentage reduction in population and the percentage reduction in feeding damage (% activity) are determined by comparing the number of dead caterpillars and the feeding damage on the treated plants with that on the untreated plants.

[2] = tested on: Spodoptera littoralis; assay: Action against Spodoptera littoralis (sprayed soybean plants); details: 72 h, 400 ppm spray on young soybean plants, 10 caterpillars in the first stage, 3 days later, read-out: percentage reduction in population and percentage reduction in feeding damage (% activity)
Experimental: Young soybean plants are sprayed with an aqueous emulsion spray mixture comprising 400 ppm of test compound and, after the spray-coating has dried, the plants are populated with 10 caterpillars of Spodoptera littoralis in the first stage and then placed in a plastics container. 3 days later, the percentage reduction in population and the percentage reduction in feeding damage (% activity) are determined by comparing the number of dead caterpillars and the feeding damage on the treated plants with that on untreated plants.

[3] = tested on: Plutella xylostella; assay: Action against Plutella xylostella caterpillars (sprayed cabbage plants); details: 72 h, 400 ppm spray on young cabbage plants, 10 caterpillars in the third stage, evaluation 3 days later, read-out: percentage reduction in population and percentage reduction in feeding damage (% activity)
Experimental: as §1, with “cabbage” for “soybean”, “Plutella xylostella” for “Heliothis virescens”, “third” for “first”, “3” for “6”

Measured: inhibition at 400 ppm

ClC(Cl)=CCOc1cc(Cl)c(OCCCOc2ccc(-c3cc(Cl)on3)cc2)c(Cl)c1 [Compound 1.17, 5-chloro-3-(4-{3-[2,6-dichloro-4-(3,3-dichloro-allyloxy)-phenoxy]-propoxy}-phenyl)-isoxazole]
> 80%: all assays above

CCn1nnc(-c2ccc(OCCCOc3c(Cl)cc(OCC=C(Cl)Cl)cc3Cl)cc2)n1 [Compound 1.4, 5-(4-{3-[2,6-dichloro-4-(3,3-dichloro-allyloxy)-phenoxy]-propoxy}-phenyl)-2-ethyl-2H-tetrazole]
> 80%: all assays above

ClC(Cl)=CCOc1cc(Cl)c(OCCCOc2ccc(-c3noc(Cl)n3)cc2)c(Cl)c1 [Compound 1.16, 5-chloro-3-(4-{3-[2,6-dichloro-4-(3,3-dichloro-allyloxy)-phenoxy]-propoxy}-phenyl)-[1,2,4]oxadiazole]
> 80%: all assays above
